Source: patent US12036226B2, “Methods of treating subjects having diabetes with chronic kidney disease” (Poxel SA, priority 2018, dated 2024)

Columns and labels:
[1] = test system: subjects with T2DM and CKD stage 3B or 4; experiment: Phase 1b 28-day safety, tolerability and PK study in subjects with T2DM and CKD stage 3B or 4; format: in vivo
Excerpt: An Open Label, Parallel Arm Study to Assess the Safety, Tolerability, and Pharmacokinetics of Imeglimin in Subjects with Type 2 Diabetes Mellitus (T2DM) and Moderate to Severe Chronic Kidney Disease (CKD)
This Phase 1b study is to assess the safety, tolerability and pharmacokinetics (PK) of imeglimin in subjects with T2DM and CKD stage 3B or 4.
Subjects will be randomly allocated to receive one of three treatments or placebo.
Doses which are below the minimally acceptable doses are acceptable if stable for 12 weeks prior to Screening as per prescribing information. […] Primary Outcome Measures […]
Safety can be evaluated by assessment of clinical laboratory tests, physical examinations, vital signs measurements, and ECG readings at various time points during the study, and by the documentation of AEs.
The incidence of treatment-emergent adverse events (TEAE) will be summarized by treatment.
Plasma lactate will be summarized descriptively by absolute value at each visit by treatment group, together with the corresponding changes from baseline.
Pharmacokinetics (PK) data can be descriptively summarized by treatment group. PK parameters will be determined using noncompartmental methods. […] Steady-state can be evaluated using the trough concentration data.

[2] = Pharmacokinetics of imeglimin (dose proportionality, excretion pathway); format: in vivo
[3] = Imeglimin Total, CKD3b (n = 21)

With `C[C@H]1N=C(N(C)C)N=C(N)N1` [imeglimin, (6R)—N^2, N^2,6-trimethyl-3,6-dihydro-1,3,5-triazine-2,4-diamine] the “Subjects with any TEAE by maximum severity: Grade 4 - Life-threatening” value (from here on “Subjects with any TEAE … - Life-threatening”) ([1]; 1500 mg QD, CKD3b (n = 17)) was 0 n, %, the “Subjects with any TEAE by maximum severity: Grade 5 - Death” value (from here on “Subjects with any TEAE … - Death”) ([1]; 1500 mg QD, CKD3b (n = 17)) was 0 n, % and the “Subjects with any study drug related TEAE” value ([1]; 1500 mg QD, CKD3b (n = 17)) was 1 (14%) n, %. The “Subjects with any study drug related TEAE: Grade 1 - Mild” value ([1]; 1500 mg QD, CKD3b (n = 17)) was 1 (14%) n, %, the “Subjects with any study drug related TEAE: Grade 2 - Moderate” value ([1]; 1500 mg QD, CKD3b (n = 17)) was 0 n, % and the “Subjects with any study drug related TEAE: Grade 3 - Severe” value ([1]; 1500 mg QD, CKD3b (n = 17)) was 0 n, %. For the same compound, the “Subjects with any study drug related TEAE: Grade 4 - Life-threatening” value ([1]; 1500 mg QD, CKD3b (n = 17)) was 0 n, %, the “Subjects with any study drug related TEAE: Grade 5 - Death” value ([1]; 1500 mg QD, CKD3b (n = 17)) was 0 n, % and the “TEAE: Gastrointestinal disorders” value ([1]; 1500 mg QD, CKD3b (n = 17)) was 3 (43%) n, %. For the same compound, the “Subjects with any TEAE” value ([1]; 1500 mg QD, CKD4 (n = 5)) was 3 (60%) n, %, the “Subjects with any TEAE by maximum severity: Grade 1 - Mild” value (shortened to “Subjects with any TEAE … - Mild”) ([1]; 1500 mg QD, CKD4 (n = 5)) was 3 (60%) n, % and the “Subjects with any TEAE by maximum severity: Grade 2 - Moderate” value (shortened to “Subjects with any TEAE … - Moderate”) ([1]; 1500 mg QD, CKD4 (n = 5)) was 0 n, %. For the same compound, the “Subjects with any TEAE by maximum severity: Grade 3 - Severe” value (shortened to “Subjects with any TEAE … - Severe”) ([1]; 1500 mg QD, CKD4 (n = 5)) was 0 n, %, the “Subjects with any TEAE … - Life-threatening” value ([1]; 1500 mg QD, CKD4 (n = 5)) was 0 n, % and the “Subjects with any TEAE … - Death” value ([1]; 1500 mg QD, CKD4 (n = 5)) was 0 n, %. For the same compound, the “Subjects with any study drug related TEAE” value ([1]; 1500 mg QD, CKD4 (n = 5)) was 2 (40%) n, %, the “Subjects with any study drug related TEAE: Grade 1 - Mild” value ([1]; 1500 mg QD, CKD4 (n = 5)) was 2 (40%) n, % and the “Subjects with any study drug related TEAE: Grade 2 - Moderate” value ([1]; 1500 mg QD, CKD4 (n = 5)) was 0 n, %. The “Subjects with any study drug related TEAE: Grade 3 - Severe” value ([1]; 1500 mg QD, CKD4 (n = 5)) was 0 n, %, the “Subjects with any study drug related TEAE: Grade 4 - Life-threatening” value ([1]; 1500 mg QD, CKD4 (n = 5)) was 0 n, % and the “Subjects with any study drug related TEAE: Grade 5 - Death” value ([1]; 1500 mg QD, CKD4 (n = 5)) was 0 n, %. The “TEAE: Gastrointestinal disorders” value ([1]; 1500 mg QD, CKD4 (n = 5)) was 2 (40%) n, %, the “confirmed plasma lactate elevations” value ([1]; CKD stages 3B and 4, 28 days) was “no cases of confirmed plasma lactate elevations” and the lactic acidosis ([1]; CKD stages 3B and 4, 28 days) was “no lactic acidosis”. The serious adverse events ([1]; CKD stages 3B and 4, 28 days) was “no incidence of serious adverse events”, the “AUC by CKD stage” value ([1]; Day 15, 1500 mg QD and 1000 mg BID treatment groups) was “increased in the T2DM with CKD stage 4 compared to CKD3B” and the “Subjects with any TEAE” value [1, 3] was 10 (48%) n, %. For the same compound, the “Subjects with any TEAE … - Mild” value [1, 3] was 6 (29%) n, %, the “Subjects with any TEAE … - Moderate” value [1, 3] was 4 (19%) n, % and the “Subjects with any TEAE … - Severe” value [1, 3] was 0 n, %. The “Subjects with any TEAE … - Life-threatening” value [1, 3] was 0 n, %, the “Subjects with any TEAE … - Death” value [1, 3] was 0 n, % and the “Subjects with any study drug related TEAE” value [1, 3] was 3 (14%) n, %. For the same compound, the “Subjects with any study drug related TEAE: Grade 1 - Mild” value [1, 3] was 2 (10%) n, %, the “Subjects with any study drug related TEAE: Grade 2 - Moderate” value [1, 3] was 1 (5%) n, % and the “Subjects with any study drug related TEAE: Grade 3 - Severe” value [1, 3] was 0 n, %. The “Subjects with any study drug related TEAE: Grade 4 - Life-threatening” value [1, 3] was 0 n, %, the “Subjects with any study drug related TEAE: Grade 5 - Death” value [1, 3] was 0 n, % and the “TEAE: Gastrointestinal disorders” value [1, 3] was 5 (24%) n, %. The “Subjects with any TEAE” value ([1]; Imeglimin Total, CKD4 (n = 17)) was 8 (47%) n, %, the “Subjects with any TEAE … - Mild” value ([1]; Imeglimin Total, CKD4 (n = 17)) was 5 (29%) n, % and the “Subjects with any TEAE … - Moderate” value ([1]; Imeglimin Total, CKD4 (n = 17)) was 3 (18%) n, %. The “Subjects with any TEAE … - Severe” value ([1]; Imeglimin Total, CKD4 (n = 17)) was 0 n, %, the “Subjects with any TEAE … - Life-threatening” value ([1]; Imeglimin Total, CKD4 (n = 17)) was 0 n, % and the “Subjects with any TEAE … - Death” value ([1]; Imeglimin Total, CKD4 (n = 17)) was 0 n, %. For the same compound, the “Subjects with any study drug related TEAE” value ([1]; Imeglimin Total, CKD4 (n = 17)) was 3 (18%) n, %, the “Subjects with any study drug related TEAE: Grade 1 - Mild” value ([1]; Imeglimin Total, CKD4 (n = 17)) was 3 (18%) n, % and the “Subjects with any study drug related TEAE: Grade 2 - Moderate” value ([1]; Imeglimin Total, CKD4 (n = 17)) was 0 n, %. The “Subjects with any study drug related TEAE: Grade 3 - Severe” value ([1]; Imeglimin Total, CKD4 (n = 17)) was 0 n, %, the “Subjects with any study drug related TEAE: Grade 4 - Life-threatening” value ([1]; Imeglimin Total, CKD4 (n = 17)) was 0 n, % and the “Subjects with any study drug related TEAE: Grade 5 - Death” value ([1]; Imeglimin Total, CKD4 (n = 17)) was 0 n, %. For the same compound, the “TEAE: Gastrointestinal disorders” value ([1]; Imeglimin Total, CKD4 (n = 17)) was 4 (24%) n, %, the “maximum observed concentrations (Cmax)” value ([1]; after the morning dose on Day 15) was “increased in a dose-dependent manner” and the tolerability ([1]; as CKD severity increased (up to stage 4)) was “well tolerated”. The “dose proportionality of exposures” value ([2]; 250 to 2000 mg range) was “less than dose proportional exposures” and the main excretion pathway ([2]; in vivo) was “renal elimination as the main excretion pathway”.
